According to ChEMBL document CHEMBL1201862, “PubChem BioAssay data set” (2004):
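Cells were grown in 96-well plates and exposed to each compound for 48 hours at five concentrations; endpoints were interpolated linearly between bracketing concentrations, or set to the highest concentration if not reached. GI50 = concentration required for 50% inhibition of growth.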 Active and inactive are the calls of the source. No stated cut-off is given here; in the data, active = GI50 up to about 1.1 µM and inactive = higher.

Assays:
Test in all cases: NCI tumour cell line growth inhibition, 48 h
786-0 = system: 786-0
A498 = system: A498
A549 = system: A549
ACHN = system: ACHN
BT-549 = system: BT-549
CAKI-1 = system: CAKI-1
CCRF-CEM = system: CCRF-CEM
COLO 205 = system: COLO 205
DU-145 = system: DU-145
EKVX = system: EKVX
HCC 2998 = system: HCC 2998
HCT-116 = system: HCT-116
HL-60 = system: HL-60
HOP-62 = system: HOP-62
HOP-92 = system: HOP-92
HT-29 = system: HT-29
Hs-578T = system: Hs-578T
IGROV-1 = system: IGROV-1
K562 = system: K562
KM12 = system: KM12
M14 = system: M14
MCF7 = system: MCF7
MDA-MB-231 = system: MDA-MB-231
MDA-MB-435 = system: MDA-MB-435
MDA-N = system: MDA-N
MOLT-4 = system: MOLT-4
Malme-3M = system: Malme-3M
NCI-H226 = system: NCI-H226
NCI-H23 = system: NCI-H23
NCI-H460 = system: NCI-H460
NCI-H522 = system: NCI-H522
OVCAR-3 = system: OVCAR-3
OVCAR-4 = system: OVCAR-4
OVCAR-5 = system: OVCAR-5
OVCAR-8 = system: OVCAR-8
PC-3 = system: PC-3
RXF 393 = system: RXF 393
SF-268 = system: SF-268
SF-295 = system: SF-295
SF-539 = system: SF-539
SK-MEL-28 = system: SK-MEL-28
SK-MEL-5 = system: SK-MEL-5
SK-OV-3 = system: SK-OV-3
SN12C = system: SN12C
SNB-19 = system: SNB-19
SNB-75 = system: SNB-75
SR = system: SR
SW-620 = system: SW-620
T47D = system: T47D
TK-10 = system: TK-10
U-251 = system: U-251
UACC-257 = system: UACC-257
UACC-62 = system: UACC-62
UO-31 = system: UO-31

Measured: GI50

Cc1cn(C2CC(O)C(COC(=O)NCCC(F)(F)C(F)(F)C(F)(F)C(F)(F)F)O2)c(=O)[nH]c1=O (centres undefined)
inactive: 786-0 > 100 µM | A498 > 100 µM | A549 > 100 µM | ACHN > 100 µM | BT-549 > 100 µM | CAKI-1 > 100 µM | CCRF-CEM > 100 µM | COLO 205 > 100 µM | DU-145 > 100 µM | EKVX > 100 µM | HCC 2998 > 100 µM | HCT-116 88.5 µM | HL-60 > 100 µM | HOP-62 > 100 µM | HOP-92 54.6 µM | HT-29 > 100 µM | Hs-578T 80.5 µM | IGROV-1 > 100 µM | K562 > 100 µM | KM12 > 100 µM | M14 > 100 µM | MCF7 > 100 µM | MDA-MB-231 > 100 µM | MDA-MB-435 75.2 µM | MDA-N 86.3 µM | MOLT-4 > 100 µM | Malme-3M > 100 µM | NCI-H226 > 100 µM | NCI-H23 > 100 µM | NCI-H460 > 100 µM | NCI-H522 > 100 µM | OVCAR-3 > 100 µM | OVCAR-4 > 100 µM | OVCAR-5 > 100 µM | OVCAR-8 > 100 µM | PC-3 > 100 µM | RXF 393 78.5 µM | SF-268 > 100 µM | SF-295 > 100 µM | SF-539 > 100 µM | SK-MEL-28 > 100 µM | SK-MEL-5 > 100 µM | SK-OV-3 > 100 µM | SN12C > 100 µM | SNB-19 > 100 µM | SNB-75 54.7 µM | SR > 100 µM | SW-620 > 100 µM | T47D > 100 µM | TK-10 > 100 µM | U-251 > 100 µM | UACC-257 > 100 µM | UACC-62 > 100 µM | UO-31 > 100 µM
